Values after ≈ are worked out from the molar mass of the structure shown. Values joined by “and” are separate entries in the source; they are usually repeats but may differ in a detail not shown here. Identical values can stand only once.
Assays:
Test in all cases: ≥ marks a high value that may be exact or a test limit, other limits are often not marked, values filed in µg/mL are converted to µM
[1] = tested on: Escherichia coli ATCC 25922
[2] = tested on: Listeria monocytogenes KCTC 19111
[3] = tested on: Pseudomonas aeruginosa ATCC 15692
[4] = tested on: Salmonella typhimurium KCTC 1926
[5] = tested on: Staphylococcus aureus ATCC 25923
[6] = tested on: Staphylococcus epidermidis KCTC 1917
[7] = tested on: Escherichia coli C25
[8] = tested on: Acinetobacter baumannii MTCC 9829
[9] = tested on: Alcaligenes faecalis MTCC 1937
[10] = tested on: Alkalihalobacillus alcalophilus MTCC 860
[11] = tested on: Bordetella bronchiseptica MTCC 6837
[12] = tested on: Citrobacter freundii MTCC 1658
[13] = tested on: Citrobacter koseri MTCC 1657
[14] = tested on: Corynebacterium glutamicum MTCC 2679
[15] = tested on: Enterococcus faecalis MTCC 439
[16] = tested on: Escherichia coli K12 MG1655
[17] = tested on: Haemophilus influenzae MTCC 621
[18] = tested on: Klebsiella aerogenes MTCC 111
[19] = tested on: Klebsiella oxytoca MTCC 2275
[20] = tested on: Klebsiella pneumoniae MTCC 7407
[21] = tested on: Pluralibacter gergoviae MTCC 3826
[22] = tested on: Proteus mirabilis MTCC 3158
[23] = tested on: Proteus vulgaris MTCC 1771
[24] = tested on: Pseudomonas aeruginosa MTCC 3542
[25] = tested on: Salmonella enterica MTCC 9844
[26] = tested on: Salmonella enterica subsp. enterica serovar Typhimurium ATCC 14028
[27] = tested on: Shigella boydii MTCC 11947
[28] = tested on: Shigella flexneri MTCC 1457
[29] = tested on: Staphylococcus aureus MTCC 3160
[30] = tested on: Staphylococcus haemolyticus MTCC 3383
[31] = tested on: Stenotrophomonas maltophilia MTCC 1890
[32] = tested on: Vibrio cholerae MTCC 3904
[33] = tested on: Escherichia coli BW25113
[34] = tested on: Escherichia coli J2210
[35] = tested on: Escherichia coli JJ2489
[36] = tested on: Escherichia coli JW0013
[37] = tested on: Escherichia coli JW0368 ΔsbmA
[38] = tested on: Escherichia coli JW2778 ΔygdD
[39] = tested on: Escherichia coli MC1041
[40] = tested on: Escherichia coli
[41] = tested on: Salmonella enterica serovar Tennessee
[42] = tested on: Salmonella enterica subsp. enterica serovar Enteritidis MH91989
[43] = tested on: Salmonella enterica subsp. enterica serovar Infantis
[44] = tested on: Salmonella enterica subsp. enterica serovar Newport
[45] = tested on: Salmonella typhimurium SL1344
[46] = tested on: Bacillus subtilis MTCC 14416
[47] = tested on: Enterococcus faecalis ATCC 29212
[48] = tested on: Escherichia coli MG1655
[49] = tested on: Pseudomonas aeruginosa ATCC 27853
[50] = tested on: Staphylococcus aureus ATCC 43300
[51] = tested on: Staphylococcus aureus MTCC 9542
[52] = tested on: Vibrio cholerae

NCCCC[C@H](NC(=O)[C@H](Cc1ccc(O)cc1)NC(=O)[C@H](Cc1c[nH]c2ccccc12)NC(=O)[C@H](CCCCN)NC(=O)[C@H](CCCCN)NC(=O)[C@H](Cc1ccc(O)cc1)NC(=O)[C@H](Cc1c[nH]c2ccccc12)NC(=O)[C@@H](N)CCCCN)C(N)=O [KWYKKWYK]
MIC [1]: 4 µM (≈ 4.91 µg/mL)
MIC [2]: 8 µM (≈ 9.83 µg/mL)
MIC [3]: 8 µM (≈ 9.83 µg/mL)
MIC [4]: 8 µM (≈ 9.83 µg/mL)
MIC [5]: 64 µM (≈ 78.6 µg/mL)
MIC [6]: 8 µM (≈ 9.83 µg/mL)

CC[C@H](C)[C@H](NC(=O)CNC(=O)[C@H](CCCN=C(N)N)NC(=O)[C@H](Cc1ccc(O)cc1)NC(=O)[C@@H](NC(=O)[C@H](CCCN=C(N)N)NC(=O)[C@H](Cc1ccccc1)NC(=O)[C@H](Cc1c[nH]c2ccccc12)NC(=O)[C@H](CCCCN)NC(=O)[C@@H](N)CCCCN)C(C)C)C(=O)N[C@@H](Cc1ccc(O)cc1)C(=O)N[C@@H](CCCN=C(N)N)C(=O)N[C@@H](CCCN=C(N)N)C(=O)N[C@@H](CCCN=C(N)N)C(N)=O [KKWFRVYRGIYRRR]
MIC [7]: ≥ 63 µM
MIC [5]: 16 µM (≈ 31.7 µg/mL)

CSCC[C@H](NC(=O)[C@H](CCCN=C(N)N)NC(=O)[C@H](Cc1cnc[nH]1)NC(=O)[C@H](Cc1c[nH]c2ccccc12)NC(=O)[C@H](CCCN=C(N)N)NC(=O)CNC(=O)[C@H](Cc1c[nH]c2ccccc12)NC(=O)[C@H](CCCN=C(N)N)NC(=O)[C@@H](N)CCCN=C(N)N)C(=O)N[C@@H](CCCN=C(N)N)C(=O)N[C@@H](CCCN=C(N)N)C(=O)N[C@@H](CCCN=C(N)N)C(=O)NCC(=O)N[C@@H](CCCN=C(N)N)C(=O)O [RRWGRWHRMRRRGR]
MIC [8]: ≥ 63.3 µM
MIC [9]: ≥ 63.3 µM
MIC [10]: 15.8 µM (≈ 32 µg/mL)
MIC [11]: ≥ 63.3 µM
MIC [12]: ≥ 63.3 µM
MIC [13]: 7.91 µM (≈ 16 µg/mL)
MIC [14]: 1.98 µM (≈ 4 µg/mL)
MIC [15]: ≥ 63.3 µM
MIC [16]: ≥ 63.3 µM
MIC [17]: ≥ 63.3 µM
MIC [18]: ≥ 63.3 µM
MIC [19]: 31.6 µM (≈ 64 µg/mL)
MIC [20]: ≥ 63.3 µM
MIC [21]: ≥ 63.3 µM
MIC [22]: ≥ 63.3 µM
MIC [23]: ≥ 63.3 µM
MIC [24]: ≥ 63.3 µM
MIC [25]: ≥ 63.3 µM
MIC [26]: > 63.3 µM
MIC [27]: 31.6 µM (≈ 64 µg/mL)
MIC [28]: 31.6 µM (≈ 64 µg/mL)
MIC [29]: ≥ 63.3 µM
MIC [30]: 1.98 µM (≈ 4 µg/mL)
MIC [31]: ≥ 63.3 µM
MIC [32]: ≥ 63.3 µM

CC[C@H](C)[C@H](NC(=O)[C@@H]1CCCN1C(=O)[C@H](CCCCN)NC(=O)[C@@H]1CCCN1C(=O)[C@@H]1CCCN1C(=O)[C@@H](NC(=O)[C@@H]1CCCN1C(=O)[C@H](CCCN=C(N)N)NC(=O)[C@@H]1CCCN1C(=O)[C@H](CCCCN)NC(=O)[C@H](Cc1ccc(O)cc1)NC(=O)[C@H](CO)NC(=O)CNC(=O)[C@H](CCCCN)NC(=O)[C@H](CC(=O)O)NC(=O)[C@@H](N)C(C)C)[C@@H](C)O)C(=O)N[C@@H](Cc1ccc(O)cc1)C(=O)N[C@@H](CC(N)=O)C(=O)N[C@@H](CCCN=C(N)N)C(=O)N[C@@H](CC(N)=O)C(=O)O [VDKGSYKPRPTPPKPIYNRN]
MIC [33]: 0.075 µM (≈ 0.175 µg/mL)
MIC [34]: 0.208 µM (≈ 0.484 µg/mL)
MIC [35]: 0.104 µM (≈ 0.242 µg/mL)
MIC [36]: 0.075 µM (≈ 0.175 µg/mL)
MIC [37]: 0.834 µM (≈ 1.94 µg/mL)
MIC [38]: 0.208 µM (≈ 0.484 µg/mL)
MIC [39]: 0.15 µM (≈ 0.349 µg/mL)
MIC [40]: 0.197 µM and 0.3 µM
MIC [41]: 0.3 µM (≈ 0.698 µg/mL)
MIC [42]: 0.6 µM (≈ 1.4 µg/mL)
MIC [43]: 0.3 µM (≈ 0.698 µg/mL)
MIC [44]: 0.075 µM (≈ 0.175 µg/mL)
MIC [45]: 0.15 µM (≈ 0.349 µg/mL)

CC[C@H](C)[C@@H]1NC(=O)[C@H](CCCCN)NC(=O)[C@@H](NC(=O)[C@H](CC(C)C)NC(=O)[C@@H](NC(=O)[C@H](CCC(N)=O)NC(=O)[C@@H]2CCCN2C(=O)[C@H](CC(C)C)NC(=O)[C@H](Cc2ccccc2)NC(=O)[C@H](CC(N)=O)NC(=O)[C@H](C)NC(=O)[C@H](C)NC(=O)[C@H](CC(C)C)NC(=O)CNC(=O)[C@H](C)NC(=O)[C@@H](NC(=O)[C@@H](N)Cc2c[nH]c3ccccc23)[C@@H](C)CC)[C@@H](C)CC)CSSC[C@@H](C(N)=O)NC(=O)[C@H](CCCCN)NC(=O)[C@H](CCCN=C(N)N)NC(=O)[C@H](C)NC1=O [WIAGLAANFLPQILCKIARKC]
MIC [46]: 21.5 µM (≈ 49.9 µg/mL)
MIC [47]: 21.5 µM (≈ 49.9 µg/mL)
MIC [48]: ≥ 42.9 µM
MIC [49]: > 42.9 µM
MIC [50]: 10.7 µM (≈ 25 µg/mL)
MIC [51]: 5.37 µM (≈ 12.5 µg/mL)
MIC [52]: 10.7 µM (≈ 25 µg/mL)

Reference: DBAASP
